Test results reported in PMC6071567 (Cold Spring Harbor Molecular Case Studies, 2018).
“Also recorded” adds a separate entry of the source. Like-named read-outs stand apart in the source and are kept apart here.

Tests used:
KELLY = experiment: Cell viability by resazurin assay, 72 h; type: cell-based, human; settings: ALK F1174L, amplified, MYCN amplified
CLB-GE = experiment: Cell viability by resazurin assay, 72 h; type: cell-based; settings: Homo sapiens
SK-N-DZ = experiment: Cell viability by resazurin assay, 72 h; type: cell-based; settings: Homo sapiens
CLB-BAR = experiment: Cell viability by resazurin assay, 72 h; type: cell-based; settings: Homo sapiens
SK-N-AS = experiment: Cell viability by resazurin assay, 72 h; type: cell-based; settings: Homo sapiens
CLB-GAR = experiment: Cell viability by resazurin assay, 72 h; type: cell-based, human; settings: ALK R1275Q, MYCN nonamplified
SK-N-BE = experiment: Cell viability by resazurin assay, 72 h; type: cell-based; settings: Homo sapiens
CLB-PE = experiment: Cell viability by resazurin assay, 72 h; type: cell-based; settings: Homo sapiens
IMR32 = experiment: Cell viability by resazurin assay, 72 h; type: cell-based, human; settings: ALK wt, MYCN amplified
[1] = tested on: ALK-I1171T metastatic neuroblastoma; type: in vivo, human; settings: for Primary tumor volume (MRI): ∼18.8 mL immediately before start

Row | Structure (SMILES) | IC50 (KELLY) [µM] | IC50 (KELLY; Homo sapiens, Kelly) [µM] | IC50 (CLB-GE) [µM] | IC50 (SK-N-DZ) [µM] | IC50 (CLB-BAR) [µM] | IC50 (SK-N-AS) [µM] | IC50 (CLB-GAR) [µM] | IC50 (CLB-GAR; Homo sapiens) [µM] | IC50 (SK-N-BE) [µM] | IC50 (CLB-PE) [µM] | IC50 (IMR32) [µM] | IC50 (IMR32; Homo sapiens, IMR-32, 72 h) [µM] | Clinical evaluation (CT, MRI, MIBG scintigraphy) ([1]; 21 mo after initiation of ceritinib, 1 yr after surgery) | Primary tumor volume (MRI) ([1]; after 3 mo therapy) [mL] | Primary tumor volume (MRI) ([1]; after 6 mo therapy, prior to surgery) [mL] | Decrease in size of primary tumor (MRI, volumetric) ([1]; after 6.5 mo of ceritinib treatment) [%] | Clinical status ([1]; after 34 mo of continuous ceritinib treatment) | Urinary catecholamines ([1]; after the first 4-wk cycle, 450 mg/m^2 once daily) | Ki-67 positivity of resected tumor ([1]; tumor removed at 7.5 mo of treatment, 27% before treatment) [%]
1 | Cc1cc(Nc2ncc(Cl)c(Nc3ccccc3S(=O)(=O)C(C)C)n2)c(OC(C)C)cc1C1CCNCC1 [ceritinib, 5-chloro-N2-(2-isopropoxy-5-methyl-4-(piperidin-4-yl)phenyl)-N4-(2-(isopropylsulfonyl)phenyl)pyrimidine-2,4-diamine] | 0.329 ± 0.036 | ~0.33 | 0.131 ± 0.024 | > 0.8 | 0.0361 ± 0.0062 | > 3 | 0.102 ± 0.016 | ~0.11 | > 1.5 | > 15 | > 0.5 | > 0.35 | complete remission at all metastatic sites; also recorded: no residual tumor in the abdomen and complete resolution of metastases at all sites | ~13.8 | ~10.6 | −43.6 | continuous complete remission | decreased to levels below the upper reference limit | 5
2 | C[C@@H](Oc1cc(-c2cnn(C3CCNCC3)c2)cnc1N)c1c(Cl)ccc(F)c1Cl [crizotinib] | 0.333 ± 0.078 | ~0.33 | 0.234 ± 0.018 | > 4 | 0.0549 ± 0.02 | 0.353 ± 0.027 |  |  | > 1 | > 4 | 0.349 ± 0.045 | > 0.35 |  |  |  |  |  |  | 
